Source: the supplement of paper PMC10307832

What was measured:
Assay in all cases: relative viability (nuclei count vs DMSO), 5 days (fraction); higher = more cells survive
Bexarotene + Palbociclib = compound: C=C(c1ccc(C(=O)O)cc1)c1cc2c(cc1C)C(C)(C)CCC2(C)C [Bexarotene] + CC(=O)c1c(C)c2cnc(Nc3ccc(N4CCNCC4)cn3)nc2n(C2CCCC2)c1=O [Palbociclib] (partner 0.5 µM)
Method in brief: (§1)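 Cells from lung cancer lines were seeded into 1536-well plates and, one day later, dosed by pin tool. Treatments were either a single drug or a fixed dose of an anchor drug with five library-drug doses (not always all listed) in √10 steps. After 5 days, nuclei were stained in a one-step fixation (final 0.05% Triton X-100, 1% formaldehyde, 1 ug/ml Hoechst) and counted on 4× images, and relative viability is the treated-to-vehicle nuclei ratio, as the median of duplicate plates.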

Bexarotene + OSI-027 = compound: C=C(c1ccc(C(=O)O)cc1)c1cc2c(cc1C)C(C)(C)CCC2(C)C [Bexarotene] + COc1cccc2cc(-c3nc([C@H]4CC[C@H](C(=O)O)CC4)n4ncnc(N)c34)[nH]c12 [OSI-027] (partner 0.5 µM)
Method in brief: as §1

Bexarotene + Foretinib = compound: C=C(c1ccc(C(=O)O)cc1)c1cc2c(cc1C)C(C)(C)CCC2(C)C [Bexarotene] + COc1cc2c(Oc3ccc(NC(=O)C4(C(=O)Nc5ccc(F)cc5)CC4)cc3F)ccnc2cc1OCCCN1CCOCC1 [Foretinib] (partner 0.25 µM)
Method in brief: as §1

Bexarotene = compound: C=C(c1ccc(C(=O)O)cc1)c1cc2c(cc1C)C(C)(C)CCC2(C)C [Bexarotene]
Method in brief: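 In 1536-well plates, lung cancer cell lines rested overnight at 37 °C before five library-drug doses (not always all listed), √10 apart, were pinned onto vehicle-anchored plates. Nuclei were counted with MetaXpress from 4× Hoechst images taken after 5 days without medium change. Viability compares treated-well with vehicle-well nuclei as a median over plates, and plates needed control CV below 25% plus at least one doubling to pass.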

Row | Cell Line | relative viability (Bexarotene + Palbociclib; first compound 0.08 µM) | relative viability (Bexarotene + Palbociclib; first compound 0.253 µM) | relative viability (Bexarotene + Palbociclib; first compound 0.8 µM) | relative viability (Bexarotene + Palbociclib; first compound 2.53 µM) | relative viability (Bexarotene + Palbociclib; first compound 8 µM) | relative viability (Bexarotene + OSI-027; first compound 0.08 µM) | relative viability (Bexarotene + OSI-027; first compound 0.253 µM) | relative viability (Bexarotene + OSI-027; first compound 0.8 µM) | relative viability (Bexarotene + OSI-027; first compound 2.53 µM) | relative viability (Bexarotene + OSI-027; first compound 8 µM) | relative viability (Bexarotene + Foretinib; first compound 0.08 µM) | relative viability (Bexarotene + Foretinib; first compound 0.253 µM) | relative viability (Bexarotene + Foretinib; first compound 0.8 µM) | relative viability (Bexarotene + Foretinib; first compound 2.53 µM) | relative viability (Bexarotene + Foretinib; first compound 8 µM) | relative viability (Bexarotene; 0.08 µM) | relative viability (Bexarotene; 0.253 µM) | relative viability (Bexarotene; 0.8 µM) | relative viability (Bexarotene; 2.53 µM) | relative viability (Bexarotene; 8 µM)
1 | HCC-78 | 0.518 | 0.416 | 0.403 | 0.473 | 0.509 | 0.389 | 0.325 | 0.331 | 0.34 | 0.399 | 0.54 | 0.499 | 0.547 | 0.523 | 0.468 | 1.09 | 0.889 | 0.844 | 0.849 | 1.08
2 | HCC-366 | 0.424 | 0.42 | 0.365 | 0.416 | 0.4 | 1.2 | 0.968 | 0.974 | 0.888 | 0.913 | 0.94 | 0.989 | 0.962 | 0.969 | 0.834 | 1.06 | 0.998 | 1.02 | 0.999 | 1.02
3 | HCC-827 | 0.508 | 0.497 | 0.466 | 0.482 | 0.497 | 0.843 | 0.739 | 0.715 | 0.867 | 0.74 | 1.07 | 1.02 | 0.992 | 1.09 | 0.976 | 1.09 | 0.993 | 0.961 | 1.05 | 0.937
4 | HOP-62 | 0.502 | 0.516 | 0.451 | 0.409 | 0.491 | 0.92 | 0.841 | 0.847 | 0.803 | 0.802 | 1.35 | 1.28 | 1.23 | 1.14 | 1.08 | 1.13 | 1.11 | 1.15 | 1.04 | 1
5 | IA-LM | – | – | – | – | – | – | – | – | – | – | 1.03 | 1.14 | 0.98 | 0.935 | 0.93 | 0.876 | 0.906 | 0.806 | 0.774 | 0.831
6 | LC-2-ad | 0.427 | 0.5 | 0.473 | 0.434 | 0.46 | 0.894 | 0.944 | 0.779 | 0.8 | 0.881 | 0.976 | 1.01 | 0.969 | 0.982 | 0.893 | 0.989 | 1.08 | 1.06 | 1 | 0.98
7 | LCLC-97TM1 | 0.211 | 0.245 | 0.168 | 0.177 | 0.185 | 0.427 | 0.54 | 0.598 | 0.561 | 0.515 | 0.891 | 1 | 0.887 | 0.933 | 0.969 | 1.03 | 0.969 | 1.02 | 0.829 | 0.939
8 | LCLC-103H | 0.495 | 0.544 | 0.453 | 0.476 | 0.475 | 0.522 | 0.434 | 0.354 | 0.461 | 0.448 | 0.753 | 0.665 | 0.695 | 0.814 | 0.677 | 1.09 | 1.03 | 0.849 | 0.983 | 1.05
9 | LK-2 | 0.656 | 0.825 | 0.702 | 0.695 | 0.669 | 0.262 | 0.207 | 0.237 | 0.202 | 0.255 | 1.42 | 1.27 | 1.54 | – | 1.68 | 1.32 | 0.942 | 1.04 | 0.977 | 0.998
10 | LOU-NH91 | 0.544 | 0.507 | 0.485 | 0.528 | 0.551 | 0.709 | 0.718 | 0.606 | 0.599 | 0.643 | 0.88 | 0.89 | 0.84 | 0.878 | 0.786 | 1.04 | 0.957 | 0.952 | 0.869 | 0.926
11 | LU99A | 0.449 | 0.395 | 0.355 | 0.468 | 0.371 | 0.325 | 0.361 | 0.286 | 0.316 | 0.315 | 0.908 | 0.865 | 0.898 | 0.931 | 0.809 | 1.33 | 1.07 | 0.977 | 1.06 | 1.09
12 | LXF-289 | 0.636 | 0.63 | 0.605 | 0.593 | 0.639 | 0.912 | 0.925 | 0.757 | 0.572 | 0.731 | 1.18 | 1.02 | 1.02 | 1.09 | 1.22 | 1.19 | 1.18 | 1.16 | 1.17 | 1.29
13 | NCI-H596 | – | – | – | – | – | 0.859 | 0.69 | 0.704 | 0.708 | 0.634 | 0.781 | 0.61 | 0.813 | 0.853 | 0.858 | 0.956 | 0.848 | 0.957 | 0.994 | 0.919
14 | NCI-H1299 | – | – | – | – | – | – | – | – | – | – | 1.06 | 1.18 | 1.05 | 1.1 | 1.08 | 1.01 | 1.12 | 1.06 | 1.01 | 1.02
15 | NCI-H1563 | – | – | – | – | – | 0.842 | 0.787 | 0.813 | 0.897 | 0.849 | 1.04 | 0.868 | 0.824 | 0.989 | 0.85 | 1.03 | 0.911 | 0.868 | 0.938 | 0.987
16 | NCI-H1648 | 0.222 | 0.313 | 0.229 | 0.235 | 0.23 | 0.272 | 0.262 | 0.27 | 0.225 | 0.255 | – | – | – | – | – | 1.02 | 0.971 | 0.645 | 0.735 | 0.708
17 | NCI-H1703 | – | – | – | – | – | – | – | – | – | – | 0.393 | 0.377 | 0.411 | 0.399 | 0.42 | 0.944 | 0.968 | 0.759 | 0.647 | 0.701
18 | NCI-H1792 | 0.706 | 0.611 | 0.616 | 0.588 | 0.607 | 0.739 | 0.757 | 0.681 | 0.764 | 0.68 | – | – | – | – | – | 0.904 | 0.886 | 0.672 | 0.632 | 0.769
